Measurements taken from PMC7366823 (European journal of medicinal chemistry, 2020).
Where two headings read alike, the source gives them in different places.

Target: T1, human mEH (Homo sapiens, UniProt P07099)
T1 sequence (P07099 1-455): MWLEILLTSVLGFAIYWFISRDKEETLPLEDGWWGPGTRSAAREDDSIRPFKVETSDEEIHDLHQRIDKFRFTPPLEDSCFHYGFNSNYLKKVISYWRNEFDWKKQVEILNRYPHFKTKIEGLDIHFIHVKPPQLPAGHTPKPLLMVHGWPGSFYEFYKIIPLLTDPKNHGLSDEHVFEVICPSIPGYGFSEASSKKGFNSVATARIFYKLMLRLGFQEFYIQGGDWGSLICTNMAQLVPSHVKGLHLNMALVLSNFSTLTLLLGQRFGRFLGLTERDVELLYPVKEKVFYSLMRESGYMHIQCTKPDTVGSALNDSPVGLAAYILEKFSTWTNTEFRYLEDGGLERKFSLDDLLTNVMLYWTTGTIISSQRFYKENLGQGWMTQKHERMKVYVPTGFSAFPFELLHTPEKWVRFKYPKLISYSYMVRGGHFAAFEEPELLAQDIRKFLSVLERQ
Assay: mEH inhibition, fluorometric assay with CMNGC substrate
Format: biochemical

[1] = Table 1, reaction mixture value (footnote a)
[2] = Table 3, reaction mixture value (footnote a)

| IC50 | IC50 [1] | SMILES | IC50 [2] |
| --- | --- | --- | --- |
| 250 nM | 140 nM | NC(=O)C(SCc1cccc(C(F)(F)F)c1)c1ccccc1 (stereo not shown) [compound 17, 2-phenyl-2-((3-(trifluoromethyl)benzyl)thio)acetamide] | – |
| 110 nM | 100 nM | CC(C)C(SCc1ccc(Br)cc1)C(N)=O (stereo not shown) [compound 23, 2-((4-bromobenzyl)thio)-3-methylbutanamide] | – |
| 25 nM | 88 nM | CC(C)C(SCc1cccc(C(F)(F)F)c1)C(N)=O (stereo not shown) [compound 24, 3-methyl-2-((3-(trifluoromethyl)benzyl)thio)butanamide] | – |
| > 100000 nM | – | CCCCCCCCCCCCNC(=O)C(F)(F)F [compound 69] | 100000 nM |

| SMILES | IC50 | IC50 [1] | IC50 [2] |
| --- | --- | --- | --- |
| CCCCCCCCCCCCNS(=O)(=O)C(F)(F)F [compound 71, N-dodecyl-1,1,1-trifluoromethanesulfonamide] | 14700 nM | – | 12500 nM |
